Assay results published in the NIST ThermoML archive (doi:10.1016/j.fluid.2018.10.006).
Values joined by “and” are separate entries in the source; they are usually repeats but may differ in a detail not shown here. Equal values may be shown once.

Conditions: Fluid (supercritical or subcritical phases), Coaxial cylinder method

CCCCCC [hexane]
thermal conductivity
Conditions	511.79 K	513.09 K
2634 kPa	–	0.0455 W/m/K
2645 kPa	–	0.04562 W/m/K
2653 kPa	–	0.04575 W/m/K
2654 kPa	–	0.04575 W/m/K
2655 kPa	–	0.04575 W/m/K
2661 kPa	–	0.04587 W/m/K
2722 kPa	–	0.04549 W/m/K
2740 kPa	–	0.04678 W/m/K
2760 kPa	–	0.04705 W/m/K
2763 kPa	–	0.04704 W/m/K
2839 kPa	–	0.04831 W/m/K
2849 kPa	–	0.04859 W/m/K
2879 kPa	–	0.04916 W/m/K
2894 kPa	–	0.04931 W/m/K
2909 kPa	–	0.0496 W/m/K
2931 kPa	–	0.05008 W/m/K
2953 kPa	–	0.05053 W/m/K
2983 kPa	–	0.05146 W/m/K
3010 kPa	–	0.05237 W/m/K
3034 kPa	–	0.05319 W/m/K
3054 kPa	–	0.05386 W/m/K
3098 kPa	–	0.05597 W/m/K
3114 kPa	–	0.05684 W/m/K
3152 kPa	–	0.05939 W/m/K
3163 kPa	–	0.06043 W/m/K
3169 kPa	–	0.06085 W/m/K
3176 kPa	–	0.06151 W/m/K
3180 kPa	–	0.06217 W/m/K
3184 kPa	–	0.06262 W/m/K
3186 kPa	–	0.06285 W/m/K
3193 kPa	–	0.06308 W/m/K
3195 kPa	–	0.06308 W/m/K
3200 kPa	–	0.06331 W/m/K
3205 kPa	–	0.06425 W/m/K
3207 kPa	–	0.06497 W/m/K
3212 kPa	–	0.06596 W/m/K
3216 kPa	–	0.06647 W/m/K
3231 kPa	–	0.06898 W/m/K
3232 kPa	–	0.06917 W/m/K
3234 kPa	–	0.06942 W/m/K
3235 kPa	–	0.06951 W/m/K
3236 kPa	–	0.06967 W/m/K
3237 kPa	–	0.06987 W/m/K
3238 kPa	–	0.07001 W/m/K
3240 kPa	–	0.07024 W/m/K
3242 kPa	–	0.07052 W/m/K
3243 kPa	–	0.07067 W/m/K
3244 kPa	–	0.07081 W/m/K
3246 kPa	–	0.0711 W/m/K
3247 kPa	–	0.07125 W/m/K
3248 kPa	–	0.07133 W/m/K
3249 kPa	–	0.07154 W/m/K
3251 kPa	–	0.07169 W/m/K
3252 kPa	–	0.07184 W/m/K
3253 kPa	–	0.07198 W/m/K
3254 kPa	–	0.07213 W/m/K
3255 kPa	–	0.07228 W/m/K
3256 kPa	–	0.07243 W/m/K
3257 kPa	–	0.07258 W/m/K
3258 kPa	–	0.07265 W/m/K
3260 kPa	–	0.07284 W/m/K
3261 kPa	–	0.07295 W/m/K and 0.073 W/m/K
3262 kPa	–	0.07311 W/m/K
3263 kPa	–	0.07319 W/m/K
3265 kPa	–	0.07338 W/m/K
3266 kPa	–	0.07346 W/m/K
3267 kPa	–	0.07354 W/m/K
3274 kPa	–	0.07412 W/m/K
3277 kPa	–	0.07428 W/m/K
3279 kPa	–	0.07428 W/m/K
3280 kPa	–	0.07438 W/m/K
3282 kPa	–	0.07445 W/m/K
3284 kPa	–	0.07451 W/m/K
3287 kPa	–	0.07452 W/m/K
3288 kPa	–	0.07459 W/m/K
3290 kPa	–	0.07463 W/m/K
3292 kPa	–	0.07463 W/m/K
3295 kPa	–	0.07469 W/m/K
3298 kPa	–	0.07463 W/m/K
3303 kPa	–	0.07463 W/m/K
3306 kPa	–	0.07437 W/m/K
3310 kPa	–	0.07332 W/m/K
3312 kPa	–	0.07332 W/m/K
3313 kPa	–	0.07228 W/m/K
3318 kPa	–	0.07228 W/m/K
3319 kPa	–	0.07228 W/m/K
3322 kPa	–	0.07228 W/m/K
3326 kPa	–	0.07228 W/m/K
3330 kPa	–	0.07228 W/m/K
3331 kPa	–	0.07228 W/m/K
3332 kPa	–	0.07228 W/m/K
3334 kPa	–	0.07228 W/m/K
3336 kPa	–	0.07228 W/m/K
3340 kPa	–	0.07228 W/m/K
3343 kPa	–	0.07197 W/m/K
3345 kPa	–	0.07087 W/m/K
3346 kPa	–	0.07087 W/m/K
3347 kPa	–	0.07087 W/m/K
3350 kPa	–	0.07087 W/m/K
3360 kPa	–	0.07087 W/m/K
3370 kPa	–	0.07087 W/m/K
3380 kPa	–	0.07087 W/m/K
3390 kPa	–	0.07087 W/m/K
3400 kPa	–	0.06942 W/m/K
3420 kPa	–	0.06942 W/m/K
3430 kPa	–	0.06942 W/m/K
3450 kPa	–	0.06824 W/m/K and 0.06843 W/m/K
3500 kPa	–	0.06824 W/m/K
3600 kPa	–	0.06824 W/m/K
3700 kPa	–	0.06824 W/m/K
3800 kPa	–	0.06824 W/m/K
3900 kPa	–	0.06824 W/m/K
4000 kPa	–	0.07056 W/m/K
4100 kPa	–	0.0708 W/m/K and 0.07056 W/m/K
4180 kPa	0.07039 W/m/K	–
4190 kPa	0.07026 W/m/K	–
4200 kPa	0.07026 W/m/K	0.07086 W/m/K
4300 kPa	–	0.07086 W/m/K
4400 kPa	0.07099 W/m/K	–
4600 kPa	0.07159 W/m/K	0.07116 W/m/K
4700 kPa	–	0.07125 W/m/K
4800 kPa	0.07179 W/m/K	0.07144 W/m/K
4900 kPa	–	0.07165 W/m/K
5000 kPa	–	0.07187 W/m/K
5100 kPa	–	0.07209 W/m/K
5200 kPa	–	0.07225 W/m/K
5300 kPa	–	0.0725 W/m/K
5400 kPa	0.07303 W/m/K	0.07269 W/m/K
5500 kPa	–	0.07288 W/m/K
5600 kPa	–	0.07304 W/m/K
5700 kPa	–	0.07323 W/m/K
5800 kPa	–	0.07339 W/m/K
5900 kPa	–	0.07359 W/m/K
6000 kPa	0.074 W/m/K	0.07375 W/m/K
6100 kPa	–	0.07391 W/m/K
6200 kPa	–	0.07408 W/m/K
6300 kPa	–	0.07424 W/m/K
6400 kPa	–	0.07438 W/m/K
6500 kPa	–	0.07454 W/m/K
6600 kPa	–	0.07471 W/m/K
6700 kPa	–	0.07488 W/m/K
6800 kPa	–	0.07501 W/m/K
6900 kPa	–	0.07515 W/m/K
7000 kPa	0.07567 W/m/K	0.07528 W/m/K
7100 kPa	–	0.07542 W/m/K
7150 kPa	–	0.07549 W/m/K
7200 kPa	–	0.07556 W/m/K
7211 kPa	–	0.07556 W/m/K
7292 kPa	–	0.07569 W/m/K
7496 kPa	–	0.07597 W/m/K
7501 kPa	–	0.07597 W/m/K
7517 kPa	–	0.07597 W/m/K
7533 kPa	–	0.07599 W/m/K
7800 kPa	–	0.07638 W/m/K
8000 kPa	0.07705 W/m/K	–
8100 kPa	–	0.07676 W/m/K
8200 kPa	–	0.07687 W/m/K
9000 kPa	0.07812 W/m/K	–
10000 kPa	0.07922 W/m/K	–
